From patent US20250282724A1, “BENZOTRIAZOLE COMPOUND” (DAIICHI SANKYO COMPANY, LIMITED, priority 2022, published 2025)

Test system: NQO1 activity in Hepa1c1c7 cells
Test: NAD(P)H: quinone oxidoreductase-1 (NQO1) enzyme induction assay (in vitro)
Format: cell-based, mouse
Conditions: 400 nM of test compound, about 48 hr, ratio from the base without the compound
Experimental: The NQO1 assay was performed based on a previous report (Methods in Enzymology 2004; 382: 243-258). Hepa1c1c7 cells (mouse hepatocyte cell line, ATCC, cat. no. CRL-2026) were cultured in D-MEM medium containing 10% FBS and 1% penicillin/streptomycin (5% CO2, 37° C.), and seeded into 96-well plates (Corning REF. 353072) at 1×10^4 cells/well. A portion of the wells were prepared with medium only for background measurement without seeding cells. The next day, 400 nM of the test compound (0.004% of the final concentration in DMSO) dissolved in DMSO was added thereto, and the wells were incubated for about 48 hr. A well without adding the test compound was prepared for base activity assay in part.
Cell lysate (solution containing 0.8% digitonin, 2 mM EDTA), reaction solution (solution containing 25 mM Tris-HCl, 0.07% albumin, 0.01% Tween-20, 2 U/mL glucose-6-phosphate dehydrogenase, 5 μM flavin adenine dinucleotide, 1 μM glucose-6-phosphate, […] nicotinamide adenine dinucleotide phosphate, 0.03% 3-(4,5-dimethyl-2-thiazolyl)-2,5-diphenyltetrazolium bromide (MTT), and 50 μM menadione), stop solution (solution containing 0.3 mM dicoumarol and 5 mM potassium dihydrogen phosphate, pH 7.4) were prepared. After the medium was removed, 50 μL of the cell lysate was added and incubated at 37° C. for 10 minutes, followed by shaking at room temperature for 10 minutes. 200 μL of reaction solution was added thereto, and allowed to stand for 5 minutes at room temperature. 50 μL of the stop solution was added thereto, and absorbance was measured at 610 nm on a SpectraMax PLUS384 (Molecular devices) or POWERSCAN HT (DS Pharma Biomedical). The test results were analyzed in Excel, and the NQO1 activity upon addition of 400 nM of test compound was calculated as a ratio from the base without the compound.
The results of each test compound in this test are shown in the following Table 2 (A:5<NQO1 activity ratio, B:3<NQO1 activity ratio≤5).

Structure (SMILES)	activity ratio (NQO1 activity ratio)
CC[C@@H]1CN(Cc2cc([C@@H](CC(=O)O)c3ccc4c(nnn4C)c3C)cc3ccsc23)C(C)c2nc(O)ccc2O1 (single isomer, unassigned) [Example 78, (3R)-3-(1,4-Dimethyl-1H-benzotriazol-5-yl)-3-(7-{[(2R,5S*)-2-ethyl-7-hydroxy-5-methyl-2,3-dihydropyrido[2,3-f][1,4]oxazepin-4(5H)-yl]methyl}-1-benzothiophen-5-yl)propanoic acid]	A (5<NQO1 activity ratio)
CC[C@@H]1CN(Cc2cc([C@@H](CC(=O)O)c3ccc4c(nnn4C)c3C)cc3c2CCC3)S(=O)(=O)c2cccc(Cl)c2O1 [Example 48, (3R)-3-(7-{[(4R)-6-Chloro-4-ethyl-1,1-dioxido-3,4-dihydro-2H-5,1,2-benzoxathiazepin-2-yl]methyl}-2,3-dihydro-1H-inden-5-yl)-3-(1,4-dimethyl-1H-benzotriazol-5-yl)propanoic acid]	A (5<NQO1 activity ratio)
CC[C@@H]1CN(Cc2cc([C@H](CC(=O)O)c3ccc4c(nnn4C)c3C)cc3ccsc23)[C@@H](C)c2ncccc2O1 [Example 62, (3S)-3-(1,4-Dimethyl-1H-benzotriazol-5-yl)-3-(7-{[(2R,5S)-2-ethyl-5-methyl-2,3-dihydropyrido[2,3-f][1,4]oxazepin-4(5H)-yl]methyl}-1-benzothiophen-5-yl)propanoic acid]	A (5<NQO1 activity ratio)
CC[C@@H]1CN(Cc2cc([C@@H](CC(=O)O)c3cc(Cl)c4c(nnn4C)c3C)cc3c2CCC3)S(=O)(=O)c2cc(Cl)cnc2O1 [Example 97, (3R)-3-(7-Chloro-1,4-dimethyl-1H-benzotriazol-5-yl)-3-(7-{[(4R)-8-chloro-4-ethyl-1,1-dioxido-3,4-dihydro-2H-pyrido[2,3-b][1,4,5]oxathiazepin-2-yl]methyl}-2,3-dihydro-1H-inden-5-yl)propanoic acid]	A (5<NQO1 activity ratio)
Cc1c([C@H](CC(=O)O)c2cc(CN3C[C@@H](C4CC4)Oc4ccc(O)nc4C3C)c3sccc3c2)cnc2c1nnn2C (single isomer, unassigned) [Example 85, (3R)-3-(7-{[(2R,5R*)-2-Cyclopropyl-7-hydroxy-5-methyl-2,3-dihydropyrido[2,3-f][1,4]oxazepin-4(5H)-yl]methyl}-1-benzothiophen-5-yl)-3-(3,7-dimethyl-3H-[1,2,3]triazolo[4,5-b]pyridin-6-yl)propanoic acid]	A (5<NQO1 activity ratio)
CC[C@@H]1CN(Cc2cc([C@H](CC(=O)O)c3cc(Cl)c4c(nnn4C)c3C)cc3c2CCC3)S(=O)(=O)c2cc(Cl)cnc2O1 [Example 96, (3S)-3-(7-Chloro-1,4-dimethyl-1H-benzotriazol-5-yl)-3-(7-{[(4R)-8-chloro-4-ethyl-1,1-dioxido-3,4-dihydro-2H-pyrido[2,3-b][1,4,5]oxathiazepin-2-yl]methyl}-2,3-dihydro-1H-inden-5-yl)propanoic acid]	A (5<NQO1 activity ratio)

Same assay, conditions: Mus musculus, Hepa-1c1c7, 400 nM of test compound, about 48 hr, ratio from the base without the compound

Structure (SMILES)	fold induction at 0.4 µM
Cc1c(C(CC(=O)O)c2cc3c(c(CN4CC5(COC5)Oc5ncccc5S4(=O)=O)c2)CCC3)ccc2c1nnn2C (centres unmarked) [Example 36, 3-(1,4-Dimethyl-1H-benzotriazol-5-yl)-3-{7-[(1′,1′-dioxido-spiro[oxetane-3,4′-pyrido[2,3-b][1,4,5]oxathiazepine]-2′ (3′H)-yl)methyl]-2,3-dihydro-1H-inden-5-yl}propanoic acid]	> 5
Cc1c(C(CC(=O)O)c2cc3c(c(CN4CC5(CCOCC5)Oc5ncccc5S4(=O)=O)c2)CCC3)ccc2c1nnn2C (centres unmarked) [Example 33, 3-(1,4-Dimethyl-1H-benzotriazol-5-yl)-3-{7-[(1′,1′-dioxido-2,3,5,6-tetrahydrospiro[pyran-4,4′-pyrido[2,3-b][1,4,5]oxathiazepine]-2′ (3′H)-yl)methyl]-2,3-dihydro-1H-inden-5-yl}propanoic acid]	> 5
CC[C@@H]1CN(Cc2cc(C(CC(=O)O)c3ccc4c(nnn4C)c3C)cc3c2CCC3)S(=O)(=O)c2ccc(Cl)cc2O1 (stereo partly drawn) [Example 15, 3-(7-{[(4R)-7-Chloro-4-ethyl-1,1-dioxido-3,4-dihydro-2H-5,1,2-benzoxathiazepin-2-yl]methyl}-2,3-dihydro-1H-inden-5-yl)-3-(1,4-dimethyl-1H-benzotriazol-5-yl)propanoic acid]	> 5
Cc1c(C(CC(=O)O)c2cc3c(c(CN4CC5(CCC5)Oc5ncccc5S4(=O)=O)c2)CCC3)ccc2c1nnn2C (centres unmarked) [Example 35, 3-(1,4-Dimethyl-1H-benzotriazol-5-yl)-3-{7-[(1′,1′-dioxido-spiro[cyclobutane-1,4′-pyrido[2,3-b][1,4,5]oxathiazepine]-2′(3′H)-yl)methyl]-2,3-dihydro-1H-inden-5-yl}propanoic acid]	> 5

Test system: not listed separately
Test: Measurement test of plasma drug concentration after oral administration in rats
Format: in vivo, rat
Conditions: 10 mg/2 mL/kg oral, suspended in 0.5% methylcellulose, male SD rats
Experimental: 10 mg/2 mL/kg of the test compound suspended in 0.5% methylcellulose solution were force-fed to Male SD rats (7 weeks old, Japan SLC). Blood was collected from the jugular vein using a syringe with heparin at 0.5, 1, 2, 4, 6, and 24 hr after administration. After blood collection, to 20 μL of centrifuged plasma was added an equal volume of acetonitrile followed by 200 μL of internal standard (IS) solution. After agitation, all the supernatant after centrifugation was filtered, and the collected filtrate was used as the assay sample. Equal volumes of the test compound solution prepared in acetonitrile were added to blank plasma, and the samples processed in the same manner as above were used as samples for the calibration curve. The prepared samples were measured using LC/MS/MS, and the area under the blood concentration-time curve (AUC) was calculated from the compound concentration in plasma.

maximam plasma concentration [µM]	Structure (SMILES)
0.029	CC[C@@H]1CN(Cc2cc([C@H](CC(=O)O)c3ccc4c(nnn4C)c3C)cc3c2CCC3)S(=O)(=O)c2cc(Cl)cnc2O1 [Example 4, (3S)-3-(7-{[(4R)-8-Chloro-4-ethyl-1,1-dioxido-3,4-dihydro-2H-pyrido[2,3-b][1,4,5]oxathiazepin-2-yl]methyl}-2,3-dihydro-1H-inden-5-yl)-3-(1,4-dimethyl-1H-benzotriazol-5-yl)propanoic acid]
0.006	CC[C@@H]1CN(Cc2cc([C@@H](CC(=O)O)c3ccc4c(nnn4C)c3C)cc3c2CCC3)S(=O)(=O)c2cc(Cl)cnc2O1 [Example 5, (3R)-3-(7-{[(4R)-8-Chloro-4-ethyl-1,1-dioxido-3,4-dihydro-2H-pyrido[2,3-b][1,4,5]oxathiazepin-2-yl]methyl}-2,3-dihydro-1H-inden-5-yl)-3-(1,4-dimethyl-1H-benzotriazol-5-yl)propanoic acid]
0.009	CC[C@@H]1CN(Cc2cc([C@H](CC(=O)O)c3ccc4c(nnn4C)c3C)cc3ccsc23)S(=O)(=O)c2cc(Cl)cnc2O1 [Example 7, (3S)-3-(7-{[(4R)-8-Chloro-4-ethyl-1,1-dioxido-3,4-dihydro-2H-pyrido[2,3-b][1,4,5]oxathiazepin-2-yl]methyl}-1-benzothiophen-5-yl)-3-(1,4-dimethyl-1H-benzotriazol-5-yl)propanoic acid]
0.005	CC[C@@H]1CN(Cc2cc([C@@H](CC(=O)O)c3ccc4c(nnn4C)c3C)cc3ccsc23)S(=O)(=O)c2cc(Cl)cnc2O1 [Example 8, (3R)-3-(7-{[(4R)-8-Chloro-4-ethyl-1,1-dioxido-3,4-dihydro-2H-pyrido[2,3-b][1,4,5]oxathiazepin-2-yl]methyl}-1-benzothiophen-5-yl)-3-(1,4-dimethyl-1H-benzotriazol-5-yl)propanoic acid]
